# Laboratory results: patent US10351575B2, “Bicyclic urea, thiourea, guanidine and cyanoguanidine compounds useful for the treatment of pain” (Array BioPharma Inc., priority 2012, dated 2019)
# Columns and labels:
# Experiment in all cases: KinaseProfiler off-target kinase profiling
# Format in all cases: biochemical
# Conditions in all cases: 10 μM, ATP near Km
# ARK5 = ARK5 (Homo sapiens (Human), UniProt O60285)
# In short: (§1)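 ATP was held near each kinase's Km while compound was present at 10 μM. Runs were done twice, and values are the average percent of control.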
# CAMK2d = CAMK2d (Homo sapiens (Human), UniProt Q13557)
# In short: as §1
# CDK2/cyclinA = CDK2/cyclinA (Homo sapiens (Human), UniProt P24941)
# In short: as §1
# CHK2 = CHK2 (Homo sapiens (Human), UniProt O96017)
# In short: as §1
# ERK1 = ERK1 (Homo sapiens (Human), UniProt P27361)
# In short: as §1
# ERK2 = ERK2 (Homo sapiens (Human), UniProt P28482)
# In short: as §1
# EphA2 = EphA2 (Homo sapiens (Human), UniProt P29317)
# In short: as §1
# EphB3 = EphB3 (Homo sapiens (Human), UniProt P54753)
# In short: as §1
# Fes = Fes (Homo sapiens (Human), UniProt P07332)
# In short: as §1
# Fms = Fms (Homo sapiens (Human), UniProt P07333)
# In short: as §1
# HIPK2 = HIPK2 (Homo sapiens (Human), UniProt Q9H2X6)
# In short: as §1
# IGF-1R = IGF-1R (Homo sapiens (Human), UniProt P08069)
# In short: as §1
# MELK = MELK (Homo sapiens (Human), UniProt Q14680)
# In short: as §1
# MYLK = MYLK (Homo sapiens (Human), UniProt Q15746)
# In short: as §1
# NEK3 = NEK3 (Homo sapiens (Human), UniProt P51956)
# In short: as §1
# NEK6 = NEK6 (Homo sapiens (Human), UniProt Q9HC98)
# In short: as §1
# NLK = NLK (Homo sapiens (Human), UniProt Q9UBE8)
# In short: as §1
# PAK4 = PAK4 (Homo sapiens (Human), UniProt O96013)
# In short: as §1
# PAK5 = PAK5 (Homo sapiens (Human), UniProt Q9P286)
# In short: as §1
# PAK6 = PAK6 (Homo sapiens (Human), UniProt Q9NQU5)
# In short: as §1
# PDK1 = PDK1 (Homo sapiens (Human), UniProt O15530)
# In short: as §1
# PKCiota = PKCiota (Homo sapiens (Human), UniProt P41743)
# In short: as §1
# PKCzeta = PKCzeta (Homo sapiens (Human), UniProt Q05513)
# In short: as §1
# PKD2 = PKD2 (Homo sapiens (Human), UniProt Q9BZL6)
# In short: as §1
# PrKX = PrKX (Homo sapiens (Human), UniProt P51817)
# In short: as §1
# ROCK-I = ROCK-I (Homo sapiens (Human), UniProt Q13464)
# In short: as §1
# ROCK-II = ROCK-II (Homo sapiens (Human), UniProt O75116)
# In short: as §1
# SGK3 = SGK3 (Homo sapiens (Human), UniProt Q96BR1)
# In short: as §1
# SRPK2 = SRPK2 (Homo sapiens (Human), UniProt P78362)
# In short: as §1
# TAK1 = TAK1 (Homo sapiens (Human), UniProt O43318)
# In short: as §1
# TAO2 = TAO2 (Homo sapiens (Human), UniProt Q9UL54)
# In short: as §1
# TAO3 = TAO3 (Homo sapiens (Human), UniProt Q9H2K8)
# In short: as §1
# TBK1 = TBK1 (Homo sapiens (Human), UniProt Q9UHD2)
# In short: as §1
# TSSK1 = TSSK1 (Homo sapiens (Human), UniProt Q9BXA7)
# In short: as §1
# Tie2 = Tie2 (Homo sapiens (Human), UniProt Q02763)
# In short: as §1
# Yes = Yes (Homo sapiens (Human), UniProt P07947)
# In short: as §1
# c-RAF = c-RAF (Homo sapiens (Human), UniProt P04049, Y340D/Y341D)
# In short: as §1
# p38alpha = p38alpha (Homo sapiens (Human), UniProt Q16539)
# In short: as §1
# p70S6K = p70S6K (Homo sapiens (Human), UniProt P23443)
# In short: as §1
# SRPK2, sequence (P78362 whole entry): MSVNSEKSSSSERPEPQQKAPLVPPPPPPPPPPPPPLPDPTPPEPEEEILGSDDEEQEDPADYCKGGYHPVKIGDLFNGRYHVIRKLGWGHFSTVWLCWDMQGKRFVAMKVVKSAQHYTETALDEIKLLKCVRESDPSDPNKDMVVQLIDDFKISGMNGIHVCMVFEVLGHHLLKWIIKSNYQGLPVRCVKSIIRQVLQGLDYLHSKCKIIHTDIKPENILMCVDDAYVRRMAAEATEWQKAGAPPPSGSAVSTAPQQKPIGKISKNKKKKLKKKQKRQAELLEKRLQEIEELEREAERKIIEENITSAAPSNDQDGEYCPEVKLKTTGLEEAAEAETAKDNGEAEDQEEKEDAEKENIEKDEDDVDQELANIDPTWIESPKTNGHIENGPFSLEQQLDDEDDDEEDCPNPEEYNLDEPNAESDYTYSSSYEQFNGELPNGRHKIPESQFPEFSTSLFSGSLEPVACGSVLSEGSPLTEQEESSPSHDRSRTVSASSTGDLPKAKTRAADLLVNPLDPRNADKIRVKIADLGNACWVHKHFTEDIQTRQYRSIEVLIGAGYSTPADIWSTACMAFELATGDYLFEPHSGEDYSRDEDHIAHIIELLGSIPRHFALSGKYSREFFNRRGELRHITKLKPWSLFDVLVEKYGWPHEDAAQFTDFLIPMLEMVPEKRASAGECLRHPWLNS
# SGK3, sequence (Q96BR1 whole entry): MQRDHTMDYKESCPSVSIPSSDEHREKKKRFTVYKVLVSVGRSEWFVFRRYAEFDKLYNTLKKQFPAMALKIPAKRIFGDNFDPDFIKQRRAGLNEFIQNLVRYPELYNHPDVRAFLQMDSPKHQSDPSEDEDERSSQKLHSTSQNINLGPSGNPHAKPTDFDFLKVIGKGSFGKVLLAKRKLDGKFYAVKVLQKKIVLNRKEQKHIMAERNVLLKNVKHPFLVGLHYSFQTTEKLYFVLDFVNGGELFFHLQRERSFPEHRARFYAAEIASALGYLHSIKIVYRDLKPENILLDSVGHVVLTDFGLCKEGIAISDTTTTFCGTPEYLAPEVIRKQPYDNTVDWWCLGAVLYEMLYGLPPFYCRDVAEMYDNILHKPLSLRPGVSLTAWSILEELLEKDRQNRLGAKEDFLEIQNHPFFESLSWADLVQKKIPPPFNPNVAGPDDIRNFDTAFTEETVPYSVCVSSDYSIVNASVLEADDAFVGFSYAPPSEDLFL
# TAO2, sequence (Q9UL54 whole entry): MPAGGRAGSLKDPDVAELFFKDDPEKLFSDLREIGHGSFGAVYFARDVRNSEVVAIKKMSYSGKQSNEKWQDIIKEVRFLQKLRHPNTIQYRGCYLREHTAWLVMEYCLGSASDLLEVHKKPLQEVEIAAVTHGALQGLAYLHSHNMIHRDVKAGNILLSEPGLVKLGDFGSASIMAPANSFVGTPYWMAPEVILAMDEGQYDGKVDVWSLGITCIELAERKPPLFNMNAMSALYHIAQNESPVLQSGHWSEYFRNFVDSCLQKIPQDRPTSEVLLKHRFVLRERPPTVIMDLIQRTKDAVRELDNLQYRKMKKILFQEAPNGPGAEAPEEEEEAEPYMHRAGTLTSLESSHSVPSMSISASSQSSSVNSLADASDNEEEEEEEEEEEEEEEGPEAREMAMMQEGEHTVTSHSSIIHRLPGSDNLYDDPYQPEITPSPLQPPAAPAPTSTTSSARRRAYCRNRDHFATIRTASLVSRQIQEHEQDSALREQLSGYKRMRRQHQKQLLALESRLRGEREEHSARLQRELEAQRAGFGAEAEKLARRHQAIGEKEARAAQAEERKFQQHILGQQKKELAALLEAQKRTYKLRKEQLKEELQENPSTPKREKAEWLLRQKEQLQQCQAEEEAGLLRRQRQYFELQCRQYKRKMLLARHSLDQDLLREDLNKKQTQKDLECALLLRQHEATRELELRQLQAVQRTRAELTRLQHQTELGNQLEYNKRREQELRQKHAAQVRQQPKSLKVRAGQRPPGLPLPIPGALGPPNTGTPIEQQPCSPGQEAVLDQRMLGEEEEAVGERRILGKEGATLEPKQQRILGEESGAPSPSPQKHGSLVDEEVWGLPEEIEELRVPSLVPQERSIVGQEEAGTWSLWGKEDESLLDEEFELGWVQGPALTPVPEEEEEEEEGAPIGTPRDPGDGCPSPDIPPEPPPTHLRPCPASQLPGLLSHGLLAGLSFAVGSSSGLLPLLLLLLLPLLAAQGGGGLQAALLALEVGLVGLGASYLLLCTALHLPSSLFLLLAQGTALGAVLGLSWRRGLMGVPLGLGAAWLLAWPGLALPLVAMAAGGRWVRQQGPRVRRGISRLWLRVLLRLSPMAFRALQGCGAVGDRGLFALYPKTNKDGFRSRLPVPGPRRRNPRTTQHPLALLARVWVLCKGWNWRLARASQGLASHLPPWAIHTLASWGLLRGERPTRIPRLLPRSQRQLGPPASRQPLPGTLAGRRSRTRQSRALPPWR
# NLK, sequence (Q9UBE8 whole entry): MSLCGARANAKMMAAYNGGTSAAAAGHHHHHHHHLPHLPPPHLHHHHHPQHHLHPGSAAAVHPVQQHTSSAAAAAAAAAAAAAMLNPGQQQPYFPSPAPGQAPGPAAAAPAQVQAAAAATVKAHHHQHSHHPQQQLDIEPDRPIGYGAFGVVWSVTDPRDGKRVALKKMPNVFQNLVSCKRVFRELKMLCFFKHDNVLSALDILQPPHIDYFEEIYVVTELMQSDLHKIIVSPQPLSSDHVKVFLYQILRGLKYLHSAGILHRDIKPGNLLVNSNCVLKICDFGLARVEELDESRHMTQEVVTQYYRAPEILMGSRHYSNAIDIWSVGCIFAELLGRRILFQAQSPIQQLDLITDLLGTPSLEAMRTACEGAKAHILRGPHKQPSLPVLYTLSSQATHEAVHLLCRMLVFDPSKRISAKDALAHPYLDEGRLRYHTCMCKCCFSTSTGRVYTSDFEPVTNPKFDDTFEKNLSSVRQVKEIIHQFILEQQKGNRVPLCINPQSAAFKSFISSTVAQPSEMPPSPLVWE
# CHK2, sequence (O96017 whole entry): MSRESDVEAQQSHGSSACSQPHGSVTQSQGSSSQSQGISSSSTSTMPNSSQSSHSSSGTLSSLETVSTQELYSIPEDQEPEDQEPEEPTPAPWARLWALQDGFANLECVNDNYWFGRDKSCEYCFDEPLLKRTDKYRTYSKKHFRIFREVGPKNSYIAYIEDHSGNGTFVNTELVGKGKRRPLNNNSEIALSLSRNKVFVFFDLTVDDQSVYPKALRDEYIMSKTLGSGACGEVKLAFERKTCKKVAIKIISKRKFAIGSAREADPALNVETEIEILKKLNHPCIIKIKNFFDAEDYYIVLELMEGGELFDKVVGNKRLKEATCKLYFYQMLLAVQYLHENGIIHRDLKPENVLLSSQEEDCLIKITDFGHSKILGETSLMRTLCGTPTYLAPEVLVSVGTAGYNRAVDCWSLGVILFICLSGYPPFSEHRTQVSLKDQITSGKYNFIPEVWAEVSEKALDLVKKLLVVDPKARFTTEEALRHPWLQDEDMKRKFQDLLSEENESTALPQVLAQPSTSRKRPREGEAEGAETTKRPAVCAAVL
# p38alpha, sequence (Q16539 whole entry): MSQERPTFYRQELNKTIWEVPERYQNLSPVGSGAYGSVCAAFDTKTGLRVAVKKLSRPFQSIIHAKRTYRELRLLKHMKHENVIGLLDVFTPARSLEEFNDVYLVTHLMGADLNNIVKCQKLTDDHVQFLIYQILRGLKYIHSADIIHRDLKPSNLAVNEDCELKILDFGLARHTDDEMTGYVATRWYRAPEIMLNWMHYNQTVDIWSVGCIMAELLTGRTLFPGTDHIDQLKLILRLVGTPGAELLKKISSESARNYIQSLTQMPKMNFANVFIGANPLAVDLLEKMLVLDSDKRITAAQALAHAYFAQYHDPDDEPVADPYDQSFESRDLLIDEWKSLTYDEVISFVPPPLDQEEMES
# TAO3, sequence (Q9H2K8 whole entry): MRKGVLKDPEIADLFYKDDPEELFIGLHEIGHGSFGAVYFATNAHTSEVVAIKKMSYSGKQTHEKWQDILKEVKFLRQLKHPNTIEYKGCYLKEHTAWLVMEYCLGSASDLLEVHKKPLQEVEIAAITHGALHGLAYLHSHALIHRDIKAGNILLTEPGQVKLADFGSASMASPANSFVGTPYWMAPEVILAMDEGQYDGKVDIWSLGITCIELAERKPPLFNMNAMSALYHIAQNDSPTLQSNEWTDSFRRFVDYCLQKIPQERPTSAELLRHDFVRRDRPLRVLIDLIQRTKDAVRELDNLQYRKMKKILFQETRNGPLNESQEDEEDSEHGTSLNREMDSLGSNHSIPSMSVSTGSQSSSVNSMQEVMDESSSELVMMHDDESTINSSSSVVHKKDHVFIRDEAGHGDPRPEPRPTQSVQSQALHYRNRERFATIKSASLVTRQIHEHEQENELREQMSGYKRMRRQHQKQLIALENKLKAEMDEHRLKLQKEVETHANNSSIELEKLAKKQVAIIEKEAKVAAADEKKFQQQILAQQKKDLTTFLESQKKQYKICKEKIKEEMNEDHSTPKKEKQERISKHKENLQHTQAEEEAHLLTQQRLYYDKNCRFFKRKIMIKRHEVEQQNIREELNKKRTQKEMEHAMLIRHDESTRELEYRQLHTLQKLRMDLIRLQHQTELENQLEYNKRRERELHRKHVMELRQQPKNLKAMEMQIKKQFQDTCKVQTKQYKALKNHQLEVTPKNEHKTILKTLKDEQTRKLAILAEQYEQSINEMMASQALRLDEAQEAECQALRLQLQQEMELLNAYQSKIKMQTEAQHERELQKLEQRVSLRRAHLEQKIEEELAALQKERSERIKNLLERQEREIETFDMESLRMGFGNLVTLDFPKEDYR
smiles,measurement,setting,value
"COCc1ccc2c(c1)C(NC(=O)Nc1c(C)c(-c3cnn(C)c3)nn1-c1ccccc1)COC2 (stereo not drawn) [Example 32, 1-(1′,4-dimethyl-1-phenyl-1H,1′H-[3,4′-bipyrazol]-5-yl)-3-(6-(methoxymethyl)isochroman-4-yl)urea]",Avg. POC,ARK5,118.5 POC
same,Avg. POC,CAMK2d,108.5 POC
same,Avg. POC,CDK2/cyclinA,118 POC
same,Avg. POC,CHK2,112 POC
same,Avg. POC,ERK1,107 POC
same,Avg. POC,ERK2,128.5 POC
same,Avg. POC,EphA2,118 POC
same,Avg. POC,EphB3,87.5 POC
same,Avg. POC,Fes,112.5 POC
same,Avg. POC,Fms,102 POC
same,Avg. POC,HIPK2,99.5 POC
same,Avg. POC,IGF-1R,84.5 POC
same,Avg. POC,MELK,98 POC
same,Avg. POC,MYLK,97.5 POC
same,Avg. POC,NEK3,113 POC
same,Avg. POC,NEK6,123 POC
same,Avg. POC,NLK,125.5 POC
same,Avg. POC,PAK4,98 POC
same,Avg. POC,PAK5,111 POC
same,Avg. POC,PAK6,116.5 POC
same,Avg. POC,PDK1,101.5 POC
same,Avg. POC,PKCiota,71 POC
same,Avg. POC,PKCzeta,115 POC
same,Avg. POC,PKD2,110.5 POC
same,Avg. POC,PrKX,110 POC
same,Avg. POC,ROCK-I,103 POC
same,Avg. POC,ROCK-II,106 POC
same,Avg. POC,SGK3,134 POC
same,Avg. POC,SRPK2,106.5 POC
same,Avg. POC,TAK1,99.5 POC
same,Avg. POC,TAO2,104 POC
same,Avg. POC,TAO3,105 POC
same,Avg. POC,TBK1,108.5 POC
same,Avg. POC,TSSK1,88.5 POC
same,Avg. POC,Tie2,121 POC
same,Avg. POC,Yes,114.5 POC
same,Avg. POC,c-RAF,101.5 POC
same,Avg. POC,p38alpha,96.5 POC
same,Avg. POC,p70S6K,110.5 POC
